From patent publication US12220703B2, “Multi function spinning platform” (Danmarks Tekniske Universitet, priority 2018, dated 2025)

Test system: P. aeruginosa biofilm
Assay: Antibiotic treatment of mature biofilm in perfusion on the centrifugal microfluidic disc, propidium iodide dead/alive biomass by confocal microscopy
Assay type: cell-based
Settings: 72 hours biofilm, after 24 hours of antibiotic perfusion, ciprofloxacin 4 μg/mL
Protocol: The following is an example of how to set up an experiment using the centrifugal microfluidic disc according to the present disclosure. Initially, the entire system including the microfluidic channels is sterilized. After the sterilization of the disc, the system was filled with a medium and left overnight at a low flow rate (pump set on 0.5 RPM, around 60 μL/min). The inoculation of the bacteria in the sterilized disc was achieved by addition of 40 μL overnight culture of 1:100 diluted P. aeruginosa though the inoculation channel situated in close proximity to the cell culture chamber (see FIG. 30). During inoculation, the loading opening was closed to create a back-pressure avoiding bacteria occlusion in the serpentine channel. The adhesion of the bacteria in the culture chamber was carried out in stop flow for one hour, followed by rotation at the set frequency. The total volume of the cell chamber is around 55 μL and only 40 μL of PAO1 was inoculated in order to prevent the introduction of bacteria in the inlet channel. The inoculation in the flow system was achieved by stopping the pump and adding 250 μL overnight culture of 1:100 diluted P. aeruginosa in the selected channels in proximity of the flow chamber. It was important to clamp the silicone tubes which were feeding the channels in order to avoid a back flow. […]

O=C(O)c1cn(C2CC2)c2cc(N3CCNCC3)c(F)cc2c1=O [antibiotic, Ciprofloxacin]
bacteria dead after antibiotic perfusion (flow rate 0.3 μL/min): around 70% | bacteria dead after antibiotic perfusion (flow rate 1 μL/min): around 50%
